Laboratory results from patent US8067454B2, “Thio-substituted Anthra [1, 2-d] imidazole- 6, 11-dione derivatives, preparation method and application thereof” (National Defense Medical Center, priority 2010, dated 2011).

Tests used:
HT29 = assay: NCI 60-cell drug screen, Colon Cancer HT29; type: cell-based, human; conditions: 1.00E−5 Molar
UACC-257 = assay: NCI 60-cell drug screen, Melanoma UACC-257; type: cell-based, human; conditions: 1.00E−5 Molar
[1] = tested on: 60 kinds of different human cancer cells; assay: NCI 60-cell drug screen, whole panel (One Dose Mean Graph); type: cell-based; conditions: mean over the cell lines of the panel; 1.00E−5 Molar
OVCAR-3 = assay: NCI 60-cell drug screen, Ovarian Cancer OVCAR-3; type: cell-based, human; conditions: 1.00E−5 Molar
T-47D = assay: NCI 60-cell drug screen, Breast Cancer T-47D; type: cell-based, human; conditions: 1.00E−5 Molar
CCRF-CEM = assay: NCI 60-cell drug screen, Leukemia CCRF-CEM; type: cell-based, human; conditions: 1.00E−5 Molar
NCI/ADR-RES = assay: NCI 60-cell drug screen, Ovarian Cancer NCI/ADR-RES; type: cell-based, human; conditions: 1.00E−5 Molar
Method: In brief, cellular protein levels were determined after 48 hours of drug exposure by sulforhodamine B colorimetry. Through the use of a time 0 cell control, the cell growth can be determined for each cell line thus allowing calculations of the 50% growth inhibitory concentration (GI50), the total growth inhibition (TGI), and the 50% lethal concentration (LC50). Comparison to plates not exposed to drug permits determination of concentration and times of exposure conferring 50% net growth inhibition (GI50), TGI, and 50% cell kill (LC50).
From the data analysis it follows that approximately 95% of the actives (potent anticancer drugs) from the 60 cell line screen can be identified. By these criteria, 6 compounds (each with its certification number, refer to Table 2) of the invention were reported that having anticancer activity.
The screening system in United State National Cancer Institute (NCI) consists of 60 kinds of different human cancer cells, which can be used to assay the growth-inhibiting ability or cell toxicity of a compound against various cancer and tumor at a certain concentration.
NCI had selected 6 compounds f1-0, f1-1, f3-1, f1-11, f1-2 and f1-15 as test compounds (Table 2). Among these compounds, compound f1-1 was effective against renal cancer cell strain CAKI-1, and could achieve an inhibition effect on the growth of said cancer cell up to −8.01. Compound f1-11 could achieve inhibiting effects against leukemia cell line CCRF-CEM and RPMI-8226, up to −15.39 and −60.17, respectively. Compound f1-2 was effective against central nervous system cancer cell line SNB-75, and could achieve an effect of inhibiting said cancer cell growth up to −9.55. Compound f1-15 was effective against leukemia (blood cancer) cell line K-562, MOLT-4, and RPMI-8226, and could achieve effects of inhibiting said cancer cells growth up to −31.59, −2.90 and −13.69, respectively. Further, compound f1-15 was effective also against renal cancer cell line CAKI-1, and could achieve an effect of inhibiting said cancer cell growth up to −14.89.

CAKI-1 = assay: NCI 60-cell drug screen, Renal Cancer CAKI-1; type: cell-based, human; conditions: 1.00E−5 Molar
OVCAR-8 = assay: NCI 60-cell drug screen, Ovarian Cancer OVCAR-8; type: cell-based, human; conditions: 1.00E−5 Molar
HS 578T = assay: NCI 60-cell drug screen, Breast Cancer HS 578T; type: cell-based, human; conditions: 1.00E−5 Molar
[2] = tested on: SVG p12, GBM8401 and GBM8901; assay: MTT assay, normal cell versus tumor cells (categories 39-3 to 39-7); conditions: tumor cell survival rate less than 80%; for category 39-3: survival rate higher than 80% for normal cell SVG p12 and inhibits growth of both tumor cells GBM8401 and GBM8901: FIG. 5A
MDA-MB-468 = assay: NCI 60-cell drug screen, Breast Cancer MDA-MB-468; type: cell-based, human; conditions: 1.00E−5 Molar
[3] = tested on: telomerase (total cell lysates of lung cancer cell line H1299); assay: Telomeric Repeat Amplification Protocol (TRAP) assay, screen of telomerase inhibitors; type: biochemical, human; conditions: 10 μM
Method: Telomeric Repeat Amplification Protocol (TRAP) Assay:
Telomerase activity was detected by a modified version of the general TRAP protocol. Telomerase products were resolved by 10% polyacrylamide gel electrophoresis and visualized by staining with SYBER Green. As a source of telomerase, the total cell lysates derived from lung cancer cell line H1299 cells were used. Protein concentration of the lysates was assayed using Bio-Rad protein assay kit using BSA standards.
In the TRAP assay, if a compound can stabilize the G-quadruplex structure such that telomerase can not act on telomere, then the effect of inhibiting the telomerase can be achieved. In the FIG. 2A to FIG. 2C, DMSO treatment represents as the positive control group (P); while a negative control group (N) used 5 μl of 0.1 mg/ml RNase A (CLONTECH) in the assay. It could be observed that a number of telomeric fragments were detected in the positive control group (P), while none was detected in the negative control group (N). 10 μM was selected as the concentration used to screen compounds.

| SMILES | Growth Percent, HT29 (HT29) | Growth Percent, UACC-257 (UACC-257) | Growth Percent, Mean [1] | Growth Percent, OVCAR-3 (OVCAR-3) | Growth Percent, T-47D (T-47D) | Growth Percent, CCRF-CEM (CCRF-CEM) | Growth Percent, NCI/ADR-RES (NCI/ADR-RES) | Growth Percent, CAKI-1 (CAKI-1) | Growth Percent, OVCAR-8 (OVCAR-8) | Growth Percent, HS 578T (HS 578T) | category 39-3: survival rate higher than 80% for normal cell SVG p12 and inhibits growth of both tumor cells GBM8401 and GBM8901 [2] | Growth Percent, MDA-MB-468 (MDA-MB-468) | category 39-5: survival rate higher than 80% for normal cell SVG p12 and only inhibits growth of tumor cell GBM8901 ([2]; FIG. 5C) | inhibition effect against telomerase [3] |
| --- | --- | --- | --- | --- | --- | --- | --- | --- | --- | --- | --- | --- | --- | --- |
| CN(C)CCCSc1nc2ccc3c(c2[nH]1)C(=O)c1ccccc1C3=O [f1-15, 2-(3-(dimethylamino)propylthio)-1H-anthra[1,2-d]imidazole-6,11-dione] | 17.84% | 114.50% | 47.41% | 59.33% | 45.78% | 8.49% | 54.32% | −14.89% | 61.89% | 69.32% | – | – | – | – |
| CCCSc1nc2ccc3c(c2[nH]1)C(=O)c1ccccc1C3=O [f1-2, 2-(propylthio)-1H-anthra[1,2-d]imidazole-6,11-dione] | 75.10% | 86.31% | 60.02% | 62.71% | 53.72% | 70.83% | 50.22% | 45.47% | 44.68% | 33.33% | in this category | – | – | – |
| O=C1c2ccccc2C(=O)c2c1ccc1nc(S)[nH]c21 [f1-0, 2-Mercapto-1(3)H-anthra[1,2-d]imidazole-6,11-dione] | 103.79% | 105.26% | 99.72% | 86.94% | 81.86% | 61.91% | 109.60% | 91.23% | 139.75% | 103.53% | – | 87.69% | – | – |
| CCSc1nc2ccc3c(c2[nH]1)C(=O)c1ccccc1C3=O [f1-1, 2-(Ethylthio)-1H-anthra[1,2-d]imidazole-6,11-dione] | 75.18% | 111.80% | 67.96% | 69.27% | 30.78% | 36.87% | 85.72% | −8.01% | 96.82% | 85.44% | in this category | 35.36% | – | – |
| O=C1c2ccccc2C(=O)c2c1ccc1nc(SCCN3CCCC3)[nH]c21 [f1-11] | – | 92.77% | 52.08% | – | 83.06% | −15.39% | 53.74% | – | 49.38% | – | – | 67.90% | in this category | – |
| O=C1c2ccccc2C(=O)c2c1ccc1nc3n(c21)CCS3 [f3-1, 2-(2-N-ethylthio)-1H-anthra[1,2-d]imidazole-6,11-dione] | – | 80.59% | 75.99% | – | 73.06% | 66.81% | 84.08% | – | 75.40% | – | – | 69.68% | – | exhibited inhibition effect against telomerase |
